Structures are written as SMILES. Like-named read-outs stand apart in the source and are kept apart here. Some results are limits rather than exact numbers.

As usually defined, the IC50 is the concentration needed to halve the response being measured.

The test system of data set [1] is CWR22Rv1 cells (human prostate cancer). In words: MTT cell growth assay, CWR22Rv1 cells. The class given is cell-based. Conditions: 5 days, read-out: Inhibition of Tumor cells growth IC50. The protocol: The MTT cell proliferation assay was applied in the present invention to detect the capability of compounds to suppress or inhibit prostate cancer cells growth. […] Briefly, 1 x 10^3 LNCaP or CWR22Rv1 cells suspended in complete medium were plated into each well of a 96-well Microtest III tissue culture plate (Falcon, NJ). Two days later, the medium was replaced with RPMI-1640 medium containing 10% charcoal/dextran-deprived FBS (hormone-deprived fetal bovine serum). Testing compounds were added to the medium at indicated concentrations with or without 1 nM DHT and cells were cultured for 5 days in an incubator (at 37 °C). MTT substrate solution (5 mg/ml in PBS) in 1/10 of volume was added to the cells in each well at 2 hours before harvesting. After 2 hour incubation, the plates were centrifuged (10 min at 1,000 rpm) and the supernatant from each well was carefully removed. A 100 µl of lysis buffer (50% dimethyl formamide, 5% sodium dodecyl sulphate, 0.35 M acetic acid, and 50 mM HCl) was added to each well to lyse the cells and dissolved tetrazolium in each well. The relative quantity of enzyme activity from each well was measured based on absorbance read at a wavelength of 450 nm using a Bio-RAD BenchMark microplate reader. Data derived from the MTT assay were also verified by the actual cell count and cell morphology on a separate plate set up in parallel.
For inhibition of tumor cell growth, in vitro, cells were growth in the presence of testing compounds for 5 days, and the cell growth was assayed by standard MTT assay. […] Table 2: Biological activity of Compounds and Derivatives having (1E, 6E)-1,7-bis-(3,4-dimethoxyphenyl)-4,4-disubstituted-hepta-1,6-diene-3,5-dione OR (1E, 10E)-1,11-bis(substituted phenyl)- 6,6-disubstituted undeca-1,3,8,10-tetraene-5,7-dione structural scaffold

The target of a further data set is T1, Androgen Receptor (AR) (Homo sapiens, UniProt P10275, H875Y, form not given).
T1 sequence (P10275 1-920 H875Y): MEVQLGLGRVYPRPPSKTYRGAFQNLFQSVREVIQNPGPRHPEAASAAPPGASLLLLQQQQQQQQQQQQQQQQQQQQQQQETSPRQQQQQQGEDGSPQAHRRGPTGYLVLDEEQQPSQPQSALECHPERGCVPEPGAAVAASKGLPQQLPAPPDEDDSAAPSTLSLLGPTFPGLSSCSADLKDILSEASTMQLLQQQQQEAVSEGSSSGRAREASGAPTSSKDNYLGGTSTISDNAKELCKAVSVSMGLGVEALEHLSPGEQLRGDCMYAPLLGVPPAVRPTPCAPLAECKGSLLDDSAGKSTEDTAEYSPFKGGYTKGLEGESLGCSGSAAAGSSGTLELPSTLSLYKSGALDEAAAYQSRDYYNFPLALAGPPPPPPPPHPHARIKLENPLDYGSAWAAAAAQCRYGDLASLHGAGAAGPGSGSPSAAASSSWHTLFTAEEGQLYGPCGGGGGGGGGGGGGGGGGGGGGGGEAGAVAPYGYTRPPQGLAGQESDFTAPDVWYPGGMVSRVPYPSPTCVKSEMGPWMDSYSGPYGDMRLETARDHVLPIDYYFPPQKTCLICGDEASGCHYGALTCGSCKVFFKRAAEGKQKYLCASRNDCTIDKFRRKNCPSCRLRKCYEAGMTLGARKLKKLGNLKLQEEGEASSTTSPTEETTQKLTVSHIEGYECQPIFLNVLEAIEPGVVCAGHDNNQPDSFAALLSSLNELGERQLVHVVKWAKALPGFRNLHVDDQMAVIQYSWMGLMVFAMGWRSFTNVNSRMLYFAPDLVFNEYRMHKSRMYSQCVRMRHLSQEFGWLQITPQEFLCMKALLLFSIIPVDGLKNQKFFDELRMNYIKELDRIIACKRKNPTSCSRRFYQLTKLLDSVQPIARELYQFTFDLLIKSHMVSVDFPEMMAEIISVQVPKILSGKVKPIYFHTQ
In words: Western Blot analysis of AR protein expression in CWR22Rv1 cells. Conditions: for IC50: Western blotting. The format is cell-based. For orientation: In western blotting, separated proteins are transferred to a membrane and probed.

Data set [2] in a line: Stability in acidic condition (0.1 N HCl, 37°C). The class given is physicochemical. The source says:
(§1) Also, at 24 hr where stability of JM49 was only 4%, while its derivative Compound 6 had improved to 79%. Similar improvements in stability (from 6- 24 hr) were also observed in the conditions of rat plasma (Table 4) and human plasma (Table 5). […] Table 3. Relative compound concentration changes (stability) in acidic condition

Data set [3] can be described thus: Stability in rat plasma (37°C). The format is in vitro ADME.
Text: as §1

A short description of data set [4]: Stability in human plasma (37°C). The class given is in vitro ADME. The conditions noted are these: result in words (Table 5 not given).
Text: as §1

Setting [5] is: 48 h post-incubation, read-out: Reduction of AR expression IC50 (µM) 48 h.
The mark [6] stands for this setting: 24 h post-incubation, read-out: Reduction of AR expression IC50 (µM) 24 h.

For `COc1ccc(/C=C/C(=O)C(C)(CC2CC2)C(=O)/C=C/c2ccc(OC)c(OC)c2)cc1OC` [Compound 1], the IC50 came to 2.4 µM in data set [1] and 2.1 µM on Androgen Receptor (AR) (setting [5]).
Turning to `COc1ccc(/C=C/C(=O)C(C)(CC2CCC2)C(=O)/C=C/c2ccc(OC)c(OC)c2)cc1OC` [Compound 2], in data set [1] (Homo sapiens, 120 h), the 50% inhibitory concentration (IC50) is more than 7.5 µM.
On the same count and under the same terms, in the case of `COc1ccc(/C=C/C(=O)C(C)(CC2CCCC2)C(=O)/C=C/c2ccc(OC)c(OC)c2)cc1OC` [Compound 4] it was 2.6 µM.
Take `COc1ccc(/C=C/C(=O)C(C)(CC2CCCCC2)C(=O)/C=C/c2ccc(OC)c(OC)c2)cc1OC` [Compound 5]: the IC50 in data set [1] amounted to 4.6 µM; on Androgen Receptor (AR) (setting [5]), 4 µM.
Turning to `CCN(CC)C(=O)CC(C)(C(=O)/C=C/c1ccc(OC)c(OC)c1)C(=O)/C=C/c1ccc(OC)c(OC)c1` [Compound 6], the “Concentration change (%) (stability) in acidic condition” value in data set [2] (0 h) amounted to 100%; in data set [2] (2 h), 100%; in data set [2] (4 h), 99%; in data set [2] (24 h) it was 79%; in data set [2] (48 h), 56%. Moreover, the IC50 in data set [1] (Homo sapiens, 120 h) amounted to 1.5 µM. The “Concentration change (%) (stability) in rat plasma” value was 100% in data set [3] (0 h); 98% in data set [3] (1 h); 96% in data set [3] (2 h); 93% in data set [3] (6 h); 77% in data set [3] (24 h); 51% in data set [3] (48 h). Besides, the “stability in human plasma” value in data set [4] was “unexpectedly and dramatically improved”.
`COc1ccc(/C=C/C(=O)C(C)(CC(=O)N(C)C)C(=O)/C=C/c2ccc(OC)c(OC)c2)cc1OC` [Compound 7]: the “Concentration change (%) (stability) in acidic condition” value in data set [2] (0 h) was found to be 100%; in data set [2] (1 h), 99%; in data set [2] (2 h) it was 99%; in data set [2] (4 h), 98%; in data set [2] (24 h), 81%; in data set [2] (48 h), 58%. In addition, the IC50 in data set [1] (Homo sapiens, 120 h) came out at 2 µM. The “Concentration change (%) (stability) in rat plasma” value was found to be 100% in data set [3] (0 h); 101% in data set [3] (1 h); 100% in data set [3] (2 h); 101% in data set [3] (6 h); 99% in data set [3] (24 h); 86% in data set [3] (48 h). Further, in data set [4], the “stability in human plasma” value is “unexpectedly and dramatically improved”.
`CCCCC(C)(C(=O)/C=C/c1ccc(OC)c(OC)c1)C(=O)/C=C/c1ccc(OC)c(OC)c1` [Compound 8]: the IC50 in data set [1] (Homo sapiens, 120 h) turned out to be 2.3 µM.
For the molecule `COc1ccc(/C=C/C(=O)C(C)(CC(=O)N2CCOCC2)C(=O)/C=C/c2ccc(OC)c(OC)c2)cc1OC` [Compound 11], on Androgen Receptor (AR) (setting [6]), the IC50 was found to be 2.2 µM.
Take `COc1ccc(/C=C/C(=O)C(F)(CC2CC2)C(=O)/C=C/c2ccc(OC)c(OC)c2)cc1OC` [Compound 13]: the IC50 in data set [1] (Homo sapiens, 120 h) is more than 5 µM.
Same read-out and setting: in the case of `COc1ccc(/C=C/C(=O)C(F)(CC2CCC2)C(=O)/C=C/c2ccc(OC)c(OC)c2)cc1OC` [Compound 14] it was 3.6 µM; in that of `COc1ccc(/C=C/C(=O)C(F)(CC2CCCC2)C(=O)/C=C/c2ccc(OC)c(OC)c2)cc1OC` [Compound 15], 3.2 µM; in that of `COc1ccc(/C=C/C(=O)C(F)(CC2CCCCC2)C(=O)/C=C/c2ccc(OC)c(OC)c2)cc1OC` [Compound 16], 4 µM.
On the same count and under the same terms, in the case of `CCN(CC)C(=O)CC(F)(C(=O)/C=C/c1ccc(OC)c(OC)c1)C(=O)/C=C/c1ccc(OC)c(OC)c1` [Compound 17] it was more than 7.5 µM.
On to `COc1ccc(/C=C/C(=O)C(F)(CC(=O)N(C)C)C(=O)/C=C/c2ccc(OC)c(OC)c2)cc1OC` [Compound 18], for which the IC50 in data set [1] is more than 7.5 µM; at Androgen Receptor (AR) (setting [6]), more than 5 µM.
Regarding `CCCCC(F)(C(=O)C=Cc1ccc(OC)c(OC)c1)C(=O)C=Cc1ccc(OC)c(OC)c1` (stereo not shown) [Compound 19], the IC50 in data set [1] (Homo sapiens, 120 h) was 4.7 µM.
For the molecule `CCN(CC)C(=O)CC(Cl)(C(=O)/C=C/c1ccc(OC)c(OC)c1)C(=O)/C=C/c1ccc(OC)c(OC)c1` [Compound 20], the IC50 in data set [1] (Homo sapiens, 120 h) amounted to 4 µM.
The same measure, in the same setting: in the case of `COc1ccc(/C=C/C(=O)C(Cl)(CC(=O)N(C)C)C(=O)/C=C/c2ccc(OC)c(OC)c2)cc1OC` [Compound 21] it was more than 7.5 µM.
On to `CCOC(=O)CCC(C)(C(=O)/C=C/c1ccc(OC)c(OC)c1)C(=O)/C=C/c1ccc(OC)c(OC)c1` [Compound 22], for which the IC50 on Androgen Receptor (AR) (setting [6]) is 1.8 µM.
Regarding `CCOC(=O)CCC(F)(C(=O)/C=C/c1ccc(OC)c(OC)c1)C(=O)/C=C/c1ccc(OC)c(OC)c1` [Compound 23], the IC50 at Androgen Receptor (AR) (setting [6]) is more than 5 µM.
Still for that read-out and setting: in the case of `CCN(CC)C(=O)CC(C)(C(=O)C=CC=Cc1ccc(OC)c(OC)c1)C(=O)C=CC=Cc1ccc(OC)c(OC)c1` (stereo not shown) [Compound 32] it was 2.8 µM.
`CCN(CC)C(=O)CC(C(=O)/C=C/c1ccc(OC)c(OC)c1)C(=O)/C=C/c1ccc(OC)c(OC)c1` [JM49]: the “Concentration change (%) (stability) in acidic condition” value worked out at 100% in data set [2] (0 h); 73% in data set [2] (1 h); 56% in data set [2] (2 h); 38% in data set [2] (6 h); 4% in data set [2] (24 h). Moreover, the “Concentration change (%) (stability) in rat plasma” value in data set [3] (0 h) amounted to 100%; in data set [3] (1 h), 68%; in data set [3] (2 h) it was 54%; in data set [3] (6 h), 27%; in data set [3] (24 h), 2%; in data set [3] (48 h) it was 0%. Further, the “stability in human plasma” value in data set [4] is listed as “chemically unstable”. The “reducing endogenous AR expression” value on Androgen Receptor (AR) (various concentrations, Western Blot (FIG. 6)) was “capable of reducing endogenous AR expression”.
For the molecule `COc1ccc(/C=C/C(=O)C(CC(=O)N(C)C)=C(O)/C=C/c2ccc(OC)c(OC)c2)cc1OC` [JM77], the “Concentration change (%) (stability) in acidic condition” value was 100% in data set [2] (0 h); 14% in data set [2] (1 h); 8% in data set [2] (2 h); 0% in data set [2] (6 h); 0% in data set [2] (24 h). The “Concentration change (%) (stability) in rat plasma” value in data set [3] (0 h) was determined as 100%; in data set [3] (1 h) it was 93%; in data set [3] (2 h), 88%; in data set [3] (6 h), 73%; in data set [3] (24 h), 27%; in data set [3] (48 h), 7%. The “stability in human plasma” value in data set [4] is on record as “chemically unstable”.

The values above are taken from patent EP3150203B1, “COMPOUNDS WITH (1E,6E)-1,7-BIS-(3,4- DIMETHOXYPHENYL)-4,4-DISSTITUTED-HEPA-1,6-DIENE-3,5-DI-ONE STRUCTURAL SCAFFOLD,THEIR BIOLOGICAL ACTIVITY, AND USES THEREOF” (Allianz Pharmascience Ltd, priority 2012, dated 2013).
